In patent publication US20260234157A1, “COMPOUND AND METHOD FOR TARGETED DEGRADATION OF ANDROGEN RECEPTOR” (Gan & Lee Pharmaceuticals Co., Ltd., priority 2023, published 2026):
Positions count from the first letter of the chain named. Like-named read-outs stand apart in the source and are kept apart here.

Columns and labels:
Format in all cases: cell-based
[1] = target: T1, AR protein (Homo sapiens, UniProt P10275); assay: Degradation of AR protein in VCaP cells (Western blot); conditions: 8 hours; for inhibition at 0.01 µM: compound at 10 nM, read-out: Degradation rate of the AR protein in VCaP cells, 10 nM (%); for inhibition at 0.1 µM: compound at 100 nM, read-out: Degradation rate of the AR protein in VCaP cells, 100 nM (%)
T1 construct: degradation activity of the compounds disclosed in the present disclosure on AR protein in VCaP cells; host or cells: VCaP
T1 sequence (P10275 1-920): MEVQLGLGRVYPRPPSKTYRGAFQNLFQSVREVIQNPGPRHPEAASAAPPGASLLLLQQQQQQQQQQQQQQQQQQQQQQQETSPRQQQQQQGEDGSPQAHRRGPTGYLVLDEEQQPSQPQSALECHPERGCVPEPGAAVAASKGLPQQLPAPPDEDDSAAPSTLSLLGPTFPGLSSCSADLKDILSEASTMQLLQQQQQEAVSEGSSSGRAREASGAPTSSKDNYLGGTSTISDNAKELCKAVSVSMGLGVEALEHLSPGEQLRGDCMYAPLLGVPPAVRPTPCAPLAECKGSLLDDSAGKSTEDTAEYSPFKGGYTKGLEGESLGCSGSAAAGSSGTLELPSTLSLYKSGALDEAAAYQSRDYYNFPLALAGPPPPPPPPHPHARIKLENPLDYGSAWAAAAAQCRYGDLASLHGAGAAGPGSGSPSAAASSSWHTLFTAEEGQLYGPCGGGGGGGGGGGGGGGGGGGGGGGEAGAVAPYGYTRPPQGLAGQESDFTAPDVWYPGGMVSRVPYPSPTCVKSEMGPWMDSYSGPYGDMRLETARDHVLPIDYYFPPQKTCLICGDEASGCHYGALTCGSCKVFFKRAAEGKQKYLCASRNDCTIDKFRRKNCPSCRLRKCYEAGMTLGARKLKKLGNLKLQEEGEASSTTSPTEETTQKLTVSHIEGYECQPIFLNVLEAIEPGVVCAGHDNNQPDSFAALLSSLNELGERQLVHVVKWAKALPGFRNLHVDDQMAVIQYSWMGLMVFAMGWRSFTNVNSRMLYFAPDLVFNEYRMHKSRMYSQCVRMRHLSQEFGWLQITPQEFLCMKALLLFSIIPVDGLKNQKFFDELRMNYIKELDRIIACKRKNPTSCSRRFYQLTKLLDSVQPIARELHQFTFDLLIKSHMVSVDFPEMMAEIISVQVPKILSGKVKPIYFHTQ
Method in brief: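 VCaP cells treated with compound alongside solvent controls for 8 h, then lysed in RIPA and protein quantified by BCA. AR detected by SDS-PAGE/Western blot with infrared imaging. Degradation rate calculated from band grayscale, with GAPDH as internal reference.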

[2] = system: LNCaP FGC cells; assay: Inhibition of proliferation of LNCaP cells (WST-8); conditions: Homo sapiens, LNCaP, 96 h
Protocol: The cells were cultured in a cell culture incubator with 5% CO2 at 37° C. overnight. […] On the sixth day, 96 well plates were taken out, and 20 μL of WST-8 (Beytime, C0040) reagent was added to each well.

[3] = target: T2, AR protein (Homo sapiens, UniProt P10275, T878A); assay: Degradation of AR protein in LNCaP cells (Western blot); conditions: for inhibition at 0.01 µM: read-out: Degradation rates of the AR protein in LNCaP cells, 10 nM (%); for inhibition at 0.1 µM: read-out: Degradation rates of the AR protein in LNCaP cells, 100 nM (%)
T2 construct: degradation activity of the compounds disclosed in the present disclosure on AR protein in LNCaP cells; host or cells: LNCaP FGC
T2 sequence (P10275 1-920 T878A): T1 sequence (P10275 1-920) with T878A
Method in brief: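 AR assessed by SDS-PAGE/Western blot with infrared imaging; band greyscale normalised to GAPDH gave percent degradation.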

[4] = system: VCaP cells; assay: Inhibition of proliferation of VCaP cells (WST-8); conditions: Homo sapiens, read-out: IC50 for inhibiting the proliferation of VCaP cells
Method in brief: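 VCaP FGC cells, 15000 per well in DMEM with 10% FBS, were cultured at 37° C, 5% CO2. On day nine, WST-8 reagent was added to read proliferation.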

[5] = LNCaP FGC cells, 96 hours, WST-8 absorbance at 450 nm, read-out: IC50 for inhibiting the proliferation of LNCaP cells
[6] = LNCaP cells, compound 10 nM, 8 hours, Western blot grayscale, GAPDH internal reference
[7] = LNCaP cells, compound 100 nM, 8 hours, Western blot grayscale, GAPDH internal reference
[8] = VCaP cells, 168 hours, WST-8 absorbance at 450 nm

Structure (SMILES) | inhibition at 0.01 µM [1] | inhibition at 0.1 µM [1] | IC50 [2, 5] | inhibition at 0.01 µM [3, 6] | inhibition at 0.1 µM [3, 7] | IC50 [4, 8] | IC50 ([2]; read-out: IC50 for inhibiting the proliferation of LNCaP cells, LNCaP FGC cells, 96 hours, WST-8 absorbance at 450 nm) | inhibition at 0.01 µM ([3]; LNCaP, 8 h) | inhibition at 0.1 µM ([3]; LNCaP, 8 h) | IC50 ([4]; VCaP, 168 h)
N#Cc1ccc(O[C@H]2CC[C@H](NC(=O)c3ccc(N4CC(CN5CCC6(CC5)COc5cc7c(cc56)C(=O)N(C5CCC(=O)NC5=O)C7=O)C4)nn3)CC2)cc1Cl (stereo partly drawn) [Compound 55] | 77% | 80% | 1000 nM | 44% | 69% | 83 nM |  |  |  | 
CC1(CN2CCC3(CC2)COc2c3ccc3c2CN(C2CCC(=O)NC2=O)C3=O)CCN(c2ccc(C(=O)N[C@H]3CC[C@H](Oc4ccc(C#N)c(Cl)c4)CC3)nc2)CC1 (stereo partly drawn) [Compound 259] | 33% | 78% | 73 nM | -16% | 44% | 1.2 nM |  |  |  | 
N#Cc1ccc(O[C@H]2CC[C@H](NC(=O)c3ccc(N4CC[C@@H](CN5CCC6(CC5)COc5cc7c(cc56)C(=O)N(C5CCC(=O)NC5=O)C7=O)C4)nn3)CC2)cc1Cl (stereo partly drawn) [Compound 57] | 66% | 80% | 1360 nM | 45% | 72% | 38 nM |  |  |  | 
CCC1(CN2CCC3(CC2)COc2c3ccc3c2CN(C2CCC(=O)NC2=O)C3=O)CCN(c2ccc(C(=O)N[C@H]3C(C)(C)[C@H](Oc4ccc(C#N)c(OC)c4)C3(C)C)cc2)CC1 (stereo partly drawn) [Compound 294] | 13% | 62% | 77 nM | 54% | 57% | 2 nM |  |  |  | 
CCOC1(CN2CCC3(CC2)COc2c3ccc3c2C(=O)N(C2CCC(=O)NC2=O)C3=O)CCN(c2ccc(C(=O)N[C@H]3C(C)(C)[C@H](Oc4ccc(C#N)c(OC)c4)C3(C)C)cc2)CC1 (stereo partly drawn) [Compound 295] | -4% | 37% | 370 nM | 1% | 44% | 20 nM |  |  |  | 
N#Cc1ccc(O[C@H]2CC[C@H](NC(=O)c3ccc(N4CCC5(CC(N6CCC7(CC6)COc6cc8c(cc67)C(=O)N(C6CCC(=O)NC6=O)C8=O)C5)C4)nn3)CC2)cc1Cl (stereo partly drawn) [Compound 54] | 75% | 85% | 1700 nM | 24% | 76% | 47 nM |  |  |  | 
N#Cc1ccc(O[C@H]2CC[C@H](NC(=O)c3ccc(N4CC(N5CC6(CCc7cc8c(cc7O6)C(=O)N(C6CCC(=O)NC6=O)C8=O)C5)C4)nn3)CC2)cc1Cl (stereo partly drawn) [Compound 5] | 41% | 51% |  |  |  |  | 710 nM | 51% | 35% | 4500 nM
N#Cc1ccc(O[C@H]2CC[C@H](NC(=O)c3ccc(N4CCC(CN5CCC6(CCc7cc8c(cc7O6)C(=O)N(C6CCC(=O)NC6=O)C8)CC5)CC4)nn3)CC2)cc1Cl (stereo partly drawn) [Compound 44] | 79% | 83% | 1140 nM | 85% | 84% | 2.5 nM |  |  |  | 
N#Cc1ccc(O[C@H]2CC[C@H](NC(=O)c3ccc(N4CCC5(CC4)CC(N4CCC6(CC4)COc4cc7c(cc4C6)C(=O)N(C4CCC(=O)NC4=O)C7=O)C5)nn3)CC2)cc1Cl (stereo partly drawn) [Compound 71] | 54% | 66% | 500 nM | 37% | 71% | 160 nM |  |  |  | 
COc1cc(O[C@H]2CC[C@H](NC(=O)c3ccc(N4CC(CN5CCC6(CC5)COc5c6ccc6c5C(=O)N(C5CCC(=O)NC5=O)C6=O)C4)nn3)CC2)ccc1C#N (stereo partly drawn) [Compound 251] | 48% | 73% | 150 nM | 45% | 37% | 270 nM |  |  |  | 
COC1(CN2CCC3(CC2)COc2ccc4c(c2C3)C(=O)N(C2CCC(=O)NC2=O)C4)CCN(c2ccc(C(=O)N[C@H]3CC[C@H](Oc4ccc(C#N)c(Cl)c4)CC3)nn2)CC1 (stereo partly drawn) [Compound 148] | 18% | 35% | 8660 nM | 38% | 36% | 4010 nM |  |  |  | 
CC1(C)[C@H](NC(=O)c2ccc(N3CCC(CN4CCC5(CC4)COc4c5ccc5c4CN(C4CCC(=O)NC4=O)C5=O)CC3)nn2)C(C)(C)[C@H]1Oc1ccc(C#N)c(Cl)c1 (stereo partly drawn) [Compound 210] | 28% | 71% | 8 nM | 61% | 59% | 2 nM |  |  |  | 
N#Cc1ccc(O[C@H]2CC[C@H](NC(=O)c3ccc(N4CCC5(CC4)CC(N4CCC6(CCc7ccc8c(c7O6)CN(C6CCC(=O)NC6=O)C8=O)CC4)C5)nn3)CC2)cc1Cl (stereo partly drawn) [Compound 154] | 75% | 86% | 39400 nM | 46% | 48% | 10 nM |  |  |  | 
N#Cc1ccc(O[C@H]2CC[C@H](NC(=O)c3ccc(N4CCC(F)(CN5CCC6(CC5)COc5ccc7c(c5C6)C(=O)N(C5CCC(=O)NC5=O)C7)CC4)nn3)CC2)cc1Cl (stereo partly drawn) [Compound 147] | 24% | 47% | 17000 nM | -3% | 14% | 2990 nM |  |  |  | 
CCC1(CN2CCC3(CC2)COc2c3ccc3c2C(=O)N(C2CCC(=O)NC2=O)C3=O)CCN(c2ccc(C(=O)N[C@H]3C(C)(C)[C@H](Oc4ccc(C#N)c(OC)c4)C3(C)C)cc2)CC1 (stereo partly drawn) [Compound 286] | -33% | -9% | 3720 nM | 22% | 34% | 57 nM |  |  |  | 
